The target of test [1] is AmpC (P. aeruginosa) (Pseudomonas aeruginosa (strain ATCC 15692 / DSM 22644 / CIP 104116 / JCM 14847 / LMG 12228 / 1C / PRS 101 / PAO1), UniProt P24735). As to the kind of experiment: biochemical. Here is the method:
The Class C enzyme activities were measured in the presence of the test inhibitor in spectrophotometric assay against the commercially available substrate, nitrocefin. The enzyme AmpC (P. aeruginosa.), and the substrate, were dissolved in 100 mM KH2PO4 buffer (pH 7). The buffer also contains 0.005% BSA. The test inhibitor was dissolved in DMSO and diluted 1:20 in the assay, resulting in a final concentration range of 50 μM to 0.0002 μM. In a 96-well microplate, the test inhibitor was incubated with the beta-lactamase enzyme for 40 minutes at ambient temperature, the substrate solution was added, and the incubation continued for another 40 minutes. […] The IC50 value was determined from semi logarithmic plots of enzyme inhibition versus inhibitor concentration, with a curve generated using a 4-parameter fit.

Test [2] relates to CL 5701 (Pseudomonas aeruginosa; Pa AmpC). In words: Synergy assay (checkerboard) with imipenem against P. aeruginosa strain CL5701. It is filed as cell-based. The note with it: for 2X Synergy CL5701: BLI concentration reducing the MIC of imipenem by a factor of 2, P. aeruginosa strain CL5701.
In test [3] the test system is CL 6569 (Klebsiella pneumoniae; KPC-2). As to the kind of experiment: Synergy assay (checkerboard) with imipenem against K. pneumoniae strain CL6569. As to conditions: for 16X Synergy CL6569: BLI concentration reducing the MIC of imipenem by a factor of 16, K. pneumoniae strain CL6569; for 32X Synergy CL6569: BLI concentration reducing the MIC of imipenem by a factor of 32, K. pneumoniae strain CL6569; for 64X Synergy CL6569: BLI concentration reducing the MIC of imipenem by a factor of 64, K. pneumoniae strain CL6569.
Excerpt: The assay determines the concentration of a β-lactamase inhibitor required to reduce the MIC of a β-lactam antibiotic by one-half, one-quarter, one-eighth, one-sixteenth and one-thirty-second against strains of bacteria normally resistant to the antibiotic in question. This is accomplished by titrating the BLI in a serial dilution across a microtiter plate while at the same time titrating the antibiotic in a serial dilution down the microtiter plate and then inoculating the plate with the bacterial strain in question and allowing the bacteria to grow up overnight. Each well in this microplate checkerboard contains a different combination of concentrations of the inhibitor and the antibiotic allowing a full determination of any synergy between the two.
Plates are left at 37° C. for about 20 hours and scored for growth by eye.
Synergy may be expressed as a ratio of the minimum inhibitory concentration (MIC) of an antibiotic tested in the absence of a β-lactamase inhibitor to the MIC of the same antibiotic tested in the presence of the β-lactamase inhibitor. […] Alternatively, the synergy effect may be expressed as a factor, again, utilizing a concentration of the BLI to lower the MIC of the antibiotic.

In test [4] the target is KPC-2 (K. pneumoniae) (Klebsiella pneumoniae, UniProt Q9F663). In words: biochemical.
Sequence of KPC-2 (K. pneumoniae) (Q9F663 25-293 limits assumed): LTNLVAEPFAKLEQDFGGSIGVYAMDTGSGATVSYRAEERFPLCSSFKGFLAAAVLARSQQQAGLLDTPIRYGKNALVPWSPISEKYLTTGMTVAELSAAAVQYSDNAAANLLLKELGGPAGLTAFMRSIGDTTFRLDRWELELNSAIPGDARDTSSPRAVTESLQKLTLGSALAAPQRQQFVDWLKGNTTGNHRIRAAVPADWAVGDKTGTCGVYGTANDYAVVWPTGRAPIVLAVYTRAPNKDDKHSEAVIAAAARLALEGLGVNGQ
[5] abbreviates: Table 3, read-out: K.p. KPC-2 IC50.
Where [6] appears, read: Table 3, read-out: P.a. AmpC IC50.

Results on 31 compounds are retold here after patent publication US8487093B2, “β-lactamase inhibitors” (Merck Sharp & Dohme Corp., priority 2008, dated 2013).

pIC50: −log10 of the molar value. Where two headings read alike, the source gives them in different places. Bounds are passed on as bounds.

Broadly, the pIC50 is −log10 of the IC50, conventionally taken in molar units.

Sequence of AmpC (P. aeruginosa) (P24735 27-397): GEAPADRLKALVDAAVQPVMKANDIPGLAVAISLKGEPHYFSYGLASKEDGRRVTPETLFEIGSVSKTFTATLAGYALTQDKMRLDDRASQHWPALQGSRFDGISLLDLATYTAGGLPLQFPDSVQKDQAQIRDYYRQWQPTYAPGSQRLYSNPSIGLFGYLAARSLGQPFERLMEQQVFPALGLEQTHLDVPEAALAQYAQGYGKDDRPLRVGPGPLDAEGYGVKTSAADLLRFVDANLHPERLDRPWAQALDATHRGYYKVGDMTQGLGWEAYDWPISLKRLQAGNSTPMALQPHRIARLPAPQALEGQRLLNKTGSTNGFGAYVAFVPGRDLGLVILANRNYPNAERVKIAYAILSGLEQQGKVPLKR

In the case of `O=C(Nc1ccncc1)[C@@H]1CC[C@@H]2CN1C(=O)N2OS(=O)(=O)O` [Example 6, (2S,5R)-7-Oxo-N-pyridin-4-yl-6-(sulfooxy)-1,6-diazabicyclo[3.2.1]octane-2-carboxamide], the pIC50 in test [1] is 8.22. Further, in test [2], the “4X Synergy CL5701” value is 25 µM, the “8X Synergy CL5701” value was found to be 100 µM and the “2X Synergy CL5701” value is 12.5 µM. Moreover, in test [3], the “16X Synergy CL6569” value turned out to be 50 µM, the “32X Synergy CL6569” value was 50 µM and the “64X Synergy CL6569” value was more than 100 µM.
Take `O=C(NC1CCNCC1)[C@@H]1CC[C@@H]2CN1C(=O)N2OS(=O)(=O)O` [Example 1, (2S,5R)-7-oxo-N-piperidin-4-yl-6-(sulfooxy)-1,6-diazabicyclo[3.2.1]octane-2-carboxamide]: the “2X Synergy CL5701” value in test [2] turned out to be 0.2 µM. In addition, the “4X Synergy CL5701” value in test [2] (BLI concentration reducing the MIC of imipenem by a factor of 4, P. aeruginosa strain CL5701) worked out at 3.12 µM. Moreover, in test [2] (BLI concentration reducing the MIC of imipenem by a factor of 8, P. aeruginosa strain CL5701), the “8X Synergy CL5701” value was 6.25 µM. For the same compound, in test [3], the “16X Synergy CL6569” value stood at 6.25 µM, the “32X Synergy CL6569” value was determined as 12.5 µM and the “64X Synergy CL6569” value was 12.5 µM.
As for `O=C(O[C@@H]1CCNC1)[C@@H]1CC[C@@H]2CN1C(=O)N2OS(=O)(=O)O` [Example 94], the results for the pIC50 in test [1] and in test [4] (setting [5]) were 5.52 and 7.40, respectively.
Consider `O=C(Nc1cc(C2CCNCC2)ccn1)[C@@H]1CC[C@@H]2CN1C(=O)N2OS(=O)(=O)O` [Example 78], for which the values for the pIC50 in test [1] (setting [6]) and in test [4] (setting [5]) were 9.10 and 6.33, respectively.
Regarding `CC1(C)[C@H](C(=O)O)N2C(=O)C[C@H]2S1(=O)=O` [Sulbactam, sulbactam, reference compound], the pIC50 in test [1] (Table 2, read-out: P.a. AmpC IC50) was 4.77; in test [4] (Table 2, read-out: K.p. KPC-2 IC50) it was 4.48.
As for `O=C(Nc1nccs1)[C@@H]1CC[C@@H]2CN1C(=O)N2OS(=O)(=O)O` [Example 88], the pIC50 in test [1] (setting [6]) is 8.74; in test [4] (setting [5]), 7.44.
Turning to `N[C@H]1CCN(C(=O)[C@@H]2CC[C@@H]3CN2C(=O)N3OS(=O)(=O)O)C1` [Example 55], the figures for the pIC50 in test [1] (setting [6]) and in test [4] (setting [5]) were 5.85 and 5.82, respectively.
As for `O=C(O[C@H]1CCNC[C@@H]1F)[C@@H]1CC[C@@H]2CN1C(=O)N2OS(=O)(=O)O` [Example 100], the results for the pIC50 in test [1] (setting [6]) and in test [4] (setting [5]) were 7.48 and 8.40, respectively.
For `NC1CCN(C(=O)[C@@H]2CC[C@@H]3CN2C(=O)N3OS(=O)(=O)O)CC1` [Example 50] the same measures were 6.09 and 8.10.
For `O=C(OC1CNNC1)[C@@H]1CC[C@@H]2CN1C(=O)N2OS(=O)(=O)O` [Example 109] the same measures were 6.15 and 7.21.
For `O=C(NCC1CCCN1)[C@@H]1CC[C@@H]2CN1C(=O)N2OS(=O)(=O)O` (some centres unmarked) [Example 38] the same measures were 6.60 and 6.92.
Turning to `O=C(NCC1CCNCC1)[C@@H]1CC[C@@H]2CN1C(=O)N2OS(=O)(=O)O` [Example 40], the pIC50 in test [1] (setting [6]) is 7.52; in test [4] (K.p. KPC-2 IC50, Table 3), 7.11.
Take `O=C(OCC1CCNCC1)[C@@H]1CC[C@@H]2CN1C(=O)N2OS(=O)(=O)O` [Example 18, Piperidin-4-ylmethyl(2S,5R)-7-oxo-6-(sulfooxy)-1,6-diazabicyclo[3.2.1]octane-2-carboxylate]: the figures for the pIC50 in test [1] (setting [6]) and in test [4] (setting [5]) were 6.74 and 8.00, respectively.
In the case of `NC(=O)c1cccc(NC(=O)[C@@H]2CC[C@@H]3CN2C(=O)N3OS(=O)(=O)O)c1` [Example 70], the pIC50 is 8.52 in test [1] and 7.59 in test [4] (setting [5]).
Take `O=C(Nc1cnccn1)[C@@H]1CC[C@@H]2CN1C(=O)N2OS(=O)(=O)O` [Example 83]: the pIC50 in test [1] (setting [6]) was 8.22; in test [4] (setting [5]) it was 7.24.
For `O=C(NCC1(F)CNC1)[C@@H]1CC[C@@H]2CN1C(=O)N2OS(=O)(=O)O` [Example 37] the same measures were 7.40 and 6.92.
In the same order, the values of `NS(=O)(=O)c1ccc(NC(=O)[C@@H]2CC[C@@H]3CN2C(=O)N3OS(=O)(=O)O)cc1` [Example 69] are 8.15 and 7.66.
`O=C(N[C@@H]1CCN(C2CCNCC2)C1=O)[C@@H]1CC[C@@H]2CN1C(=O)N2OS(=O)(=O)O` [Example 34]: the results for the pIC50 in test [1] and in test [4] (setting [5]) were 7.35 and 6.55, respectively.
For `O=C(Nc1cccnc1)[C@@H]1CC[C@@H]2CN1C(=O)N2OS(=O)(=O)O` [Example 71] the same measures were 7.43 and 7.38.
Regarding `O=C(Nc1ccc(N2CCNCC2)cn1)[C@@H]1CC[C@@H]2CN1C(=O)N2OS(=O)(=O)O` [Example 80], the pIC50 in test [1] (setting [6]) is 8.70; in test [4] (setting [5]), 7.82.
In the case of `O=C(OCCN1CCCCC1)[C@@H]1CC[C@@H]2CN1C(=O)N2OS(=O)(=O)O` [Example 111], the pIC50 in test [1] (setting [6]) is 5.92; in test [4] (setting [5]), 7.70.
In the same order, the values of `CN(C)c1ccnc(NC(=O)[C@@H]2CC[C@@H]3CN2C(=O)N3OS(=O)(=O)O)c1` [Example 75] are 8.52 and 6.39.
For `O=C(O[C@H]1CCNC[C@H]1F)[C@@H]1CC[C@@H]2CN1C(=O)N2OS(=O)(=O)O` [Example 98] the same measures were 7.34 and 8.05.
In the same order, the values of `NCc1ccc(NC(=O)[C@@H]2CC[C@@H]3CN2C(=O)N3OS(=O)(=O)O)nc1` [Example 77] are 8.52 and 7.38.
`O=C(NCCN1CCNCC1)[C@@H]1CC[C@@H]2CN1C(=O)N2OS(=O)(=O)O` [Example 46]: the pIC50 is 7.38 in test [1] (setting [6]) and 7.02 in test [4] (setting [5]).
For `N[C@@H]1CCN(C(=O)[C@@H]2CC[C@@H]3CN2C(=O)N3OS(=O)(=O)O)C1` [Example 54] the same measures were 6.08 and 5.49.
For `O=C(NC1CCCNC1)[C@@H]1CC[C@@H]2CN1C(=O)N2OS(=O)(=O)O` (some centres unmarked) [Example 19a], the pIC50 was 7.19 in test [1] (setting [6]) and 6.32 in test [4] (setting [5]).
As for `O=C(N[C@H]1CNC[C@H]1F)[C@@H]1CC[C@@H]2CN1C(=O)N2OS(=O)(=O)O` [Example 32], the pIC50 in test [1] was 7.72; in test [4] (K.p. KPC-2 IC50, Table 3), 6.15.
As to `O=C(NC1CCNC1)[C@@H]1CC[C@@H]2CN1C(=O)N2OS(=O)(=O)O` (stereo in doubt) [Example 14, (2S,5R)-7-oxo-N-[(3R)-pyrrolidin-3-yl]-6-(sulfooxy)-1,6-diazabicyclo[3.2.1]octane-2-carboxamide], the pIC50 in test [1] (setting [6]) was 6.96; in test [4] (K.p. KPC-2 IC50, Table 3), 6.45.
On to `O=C(O[C@H]1CCNC1)[C@@H]1CC[C@@H]2CN1C(=O)N2OS(=O)(=O)O` [Example 95], for which the pIC50 in test [1] was 6.68; in test [4] (setting [5]), 7.68.
Regarding `O=C(Nc1ccc(N2CCCC2)cn1)[C@@H]1CC[C@@H]2CN1C(=O)N2OS(=O)(=O)O` [Example 82], the pIC50 in test [1] (setting [6]) is 8.40; in test [4] (setting [5]), 8.00.
